Results: article PMC11882969 (Nature Communications, 2025)
Values joined by “and” are separate entries in the source; they are usually repeats but may differ in a detail not shown here. Equal values may be shown once. Read-outs that look alike come from different tables or passages of the source.

Tests used:
hCB1 [1] = target: T1, hCB1 (Homo sapiens, UniProt P21554); assay: Lance Ultra cAMP accumulation assay, CHO cells; assay type: cell-based; design: expressed in transfected cells; conditions: for Emax: CHO; for normalised cAMP response, concentration-response (Figure2f), replicate values: log[Compound;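 on all read-outs here: human CB1R stably expressed in CHO cells, ligands co-incubated with forskolin at room temperature, read-out is lowering of forskolin-stimulated cAMP accumulation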
T1 sequence (P21554 whole entry): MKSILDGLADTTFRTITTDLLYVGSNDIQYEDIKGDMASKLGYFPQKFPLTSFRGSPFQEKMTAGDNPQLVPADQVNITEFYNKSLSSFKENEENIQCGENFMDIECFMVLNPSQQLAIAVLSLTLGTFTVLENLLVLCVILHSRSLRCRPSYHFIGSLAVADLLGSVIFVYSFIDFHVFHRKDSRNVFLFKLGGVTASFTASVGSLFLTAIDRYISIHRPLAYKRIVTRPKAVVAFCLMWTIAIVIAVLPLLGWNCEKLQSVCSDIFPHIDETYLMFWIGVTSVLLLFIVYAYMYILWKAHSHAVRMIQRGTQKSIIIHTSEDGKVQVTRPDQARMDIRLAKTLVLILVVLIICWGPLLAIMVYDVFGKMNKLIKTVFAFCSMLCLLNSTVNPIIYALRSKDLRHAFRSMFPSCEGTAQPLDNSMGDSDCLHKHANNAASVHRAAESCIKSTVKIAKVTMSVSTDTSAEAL

CB1 (rCB1) = CB1 (rCB1) (Rattus norvegicus, UniProt P20272); assay: Radioligand competition binding, [3H]-CP-55,940, rat brain membranes; conditions: for pKi [95% CI] / radioligand binding, competition curve point (normalized): rCB1; for radioligand binding, competition curve point (normalized): log[drug], replicate columns
CB1 (rCB1), sequence (P20272 whole entry): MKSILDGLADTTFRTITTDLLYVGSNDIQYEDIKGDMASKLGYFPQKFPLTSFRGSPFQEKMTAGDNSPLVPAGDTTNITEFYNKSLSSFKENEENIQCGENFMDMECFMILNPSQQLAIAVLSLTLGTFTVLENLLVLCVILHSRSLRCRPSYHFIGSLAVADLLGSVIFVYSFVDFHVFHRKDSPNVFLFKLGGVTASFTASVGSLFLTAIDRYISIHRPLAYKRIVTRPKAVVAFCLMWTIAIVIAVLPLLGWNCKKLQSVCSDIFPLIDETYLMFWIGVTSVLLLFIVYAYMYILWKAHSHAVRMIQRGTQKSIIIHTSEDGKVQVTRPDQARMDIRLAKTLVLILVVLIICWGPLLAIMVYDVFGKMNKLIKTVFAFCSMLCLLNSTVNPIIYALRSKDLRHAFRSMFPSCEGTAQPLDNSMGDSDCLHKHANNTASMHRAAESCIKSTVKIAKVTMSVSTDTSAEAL

hCB1 [2] = target: T1, hCB1; assay: bioSensAll ebBRET signaling profiling, hCB1; assay type: cell-based; design: host or cells: HEK293SL cells, transient PEI transfection; conditions: for Gi1 hCB1 response: Gi1 biosensor; for Gi1 hCB1 / GoB hCB1: single replicate values, FigS6a; for EC50: read-out: EC50 [95% CI]; for Emax: normalized to CP-55,940
[3] = read-out: Ki [95% CI], rCB1, [3H]-CP-55,940

Cc1cc(C(=O)NC(C)(c2ccco2)c2ccco2)nn1-c1cccc(C(F)(F)F)c1 [‘4936]
EC50 (hCB1 [1]): 0.00479 µM | Emax (hCB1 [1]): 65% | agonism, inhibition of forskolin-stimulated cAMP (hCB1 [1]; hCB1-expressing cells, in words): agonists | normalised cAMP response, concentration-response (Figure2f), replicate values (hCB1 [1]; M] -5): 23.9901 and 17.3183 and 31.2071 | normalised cAMP response, concentration-response (Figure2f), replicate values (hCB1 [1]; M] -6): 35.8451 and 34.6268 and 48.1963 | normalised cAMP response, concentration-response (Figure2f), replicate values (hCB1 [1]; M] -7): 34.8754 and 40.2051 and 42.4315 | normalised cAMP response, concentration-response (Figure2f), replicate values (hCB1 [1]; M] -8): 49.8775 and 50.0992 and 49.4868 | normalised cAMP response, concentration-response (Figure2f), replicate values (hCB1 [1]; M] -9): 89.3609 and 84.5102 and 106.905 | normalised cAMP response, concentration-response (Figure2f), replicate values (hCB1 [1]; M] -10): 90.3788 and 99.666 and 104.111 | normalised cAMP response, concentration-response (Figure2f), replicate values (hCB1 [1]; M] -11): 85.7953 and 85.5262 and 99.9371 | normalised cAMP response, concentration-response (Figure2f), replicate values (hCB1 [1]; M] -12): 103.02 and 108.188 and 110.316 | Ki (CB1 (rCB1)): 0.007 µM | LLE (lipophilic ligand efficiency) (CB1 (rCB1); LLE = pIC50 − clogP): 3.2 | LE (ligand efficiency) (CB1 (rCB1); from rCB1 affinity): 0.37 | pKi [95% CI] (CB1 (rCB1)): 8.1 [7.9 – 8.4] | radioligand binding, competition curve point (normalized) (CB1 (rCB1); M = -5.643): 23.3333 and 16.4729 | radioligand binding, competition curve point (normalized) (CB1 (rCB1); M = -6.357): 15.1515 and 4.845 | radioligand binding, competition curve point (normalized) (CB1 (rCB1); M = -7.07): 14.5455 and 12.7907 | radioligand binding, competition curve point (normalized) (CB1 (rCB1); M = -7.783): 50 and 46.3178 | radioligand binding, competition curve point (normalized) (CB1 (rCB1); M = -8.496): 103.182 and 83.9147 | radioligand binding, competition curve point (normalized) (CB1 (rCB1); M = -9.21): 89.2442 | radioligand binding, competition curve point (normalized) (CB1 (rCB1); M = -9.923): 99.0909 and 86.6279 | radioligand binding, competition curve point (normalized) (CB1 (rCB1); M = -10.636): 105.758 and 87.9845 | fold less potent than CP-55,940 (CB1 (rCB1); rCB1 binding): 2.5 fold | Ki (CB1 (rCB1); [3]): 0.0075 µM | fold improvement in CB1R affinity (CB1 (rCB1); vs parent hit or analog without the change): approximately 6 fold

COC(=O)[C@](C)(NC(=O)c1cc(C)n(-c2cccc(C(F)(F)F)c2)n1)c1cccs1 [‘8690]
EC50 (hCB1 [1]): 0.473 µM | Lance Ultra cAMP pEC50 (hCB1 [1]): 6.3 [5.8 – 7.0] | Emax (hCB1 [1]): 53% | Gi1 hCB1 response (hCB1 [2]; Log [Compound] (M) -4.63927): 107.576 | Gi1 hCB1 response (hCB1 [2]; Log [Compound] (M) -5.05788): 100.593 | Gi1 hCB1 response (hCB1 [2]; Log [Compound] (M) -5.47381): 88.91 | Gi1 hCB1 response (hCB1 [2]; Log [Compound] (M) -5.89285): 68.8562 | Gi1 hCB1 response (hCB1 [2]; Log [Compound] (M) -6.31878): 81.5241 | Gi1 hCB1 response (hCB1 [2]; Log [Compound] (M) -6.72585): 77.4731 | Gi1 hCB1 response (hCB1 [2]; Log [Compound] (M) -7.14267): 64.4023 | Gi1 hCB1 response (hCB1 [2]; Log [Compound] (M) -7.55284): 52.8535 | Gi1 hCB1 response (hCB1 [2]; Log [Compound] (M) -8): 17.9832 | Gi1 hCB1 response (hCB1 [2]; Log [Compound] (M) -8.22186): 31.0987 | Gi1 hCB1 response (hCB1 [2]; Log [Compound] (M) -8.39794): 14.4917 | Gi1 hCB1 response (hCB1 [2]; Log [Compound] (M) -8.68787): 15.566 | Gi1 hCB1 response (hCB1 [2]; Log [Compound] (M) -9.15521): 3.502 | Gi1 hCB1 response (hCB1 [2]; Log [Compound] (M) -9.61989): 4.487 | Gi1 hCB1 response (hCB1 [2]; Log [Compound] (M) -10.0969): -7.576 | Gi1 hCB1 response (hCB1 [2]; Log [Compound] (M) -10.5529): -10.5308 | Gi1 hCB1 response (hCB1 [2]; Log [Compound] (M) -11.0177): -2.272 | Gi1 hCB1 response (hCB1 [2]; Log [Compound] (M) -11.4949): -1.802 | Gi1 hCB1 response (hCB1 [2]; Log [Compound] (M) -11.9208): -1.466 | Gi1 hCB1 response (hCB1 [2]; Log [Compound] (M) -12.3979): 8.695 | Gi1 hCB1 response (hCB1 [2]; Log [Compound] (M) -12.8861): 6.367 | Gi1 hCB1 response (hCB1 [2]; Log [Compound] (M) -13, individual replicate values): -3.951 | Gi1 hCB1 (hCB1 [2]; Log [Compound] (M) -4.22186): 95.271 and 72.3781 | GoB hCB1 (hCB1 [2]; Log [Compound] (M) -4.22186): 82.2993 and 86.8881 | Gi1 hCB1 (hCB1 [2]; Log [Compound] (M) -4.63927): 89.1198 and 73.8984 | GoB hCB1 (hCB1 [2]; Log [Compound] (M) -4.63927): 85.86 and 78.0511 | Gi1 hCB1 (hCB1 [2]; Log [Compound] (M) -5.05788): 89.7364 and 64.618 | GoB hCB1 (hCB1 [2]; Log [Compound] (M) -5.05788): 82.8568 and 73.8497 | Gi1 hCB1 (hCB1 [2]; Log [Compound] (M) -5.47381): 86.2831 and 71.6021 | GoB hCB1 (hCB1 [2]; Log [Compound] (M) -5.47381): 95.4631 and 77.0615 | Gi1 hCB1 (hCB1 [2]; Log [Compound] (M) -5.89285): 88.8731 and 77.0341 | GoB hCB1 (hCB1 [2]; Log [Compound] (M) -5.89285): 89.4387 and 75.2907 | Gi1 hCB1 (hCB1 [2]; Log [Compound] (M) -6.31878): 83.354 and 71.8555 | GoB hCB1 (hCB1 [2]; Log [Compound] (M) -6.31878): 83.9538 and 76.1935 | Gi1 hCB1 (hCB1 [2]; Log [Compound] (M) -6.72585): 79.6848 and 68.7673 | GoB hCB1 (hCB1 [2]; Log [Compound] (M) -6.72585): 88.3597 and 69.9433 | Gi1 hCB1 (hCB1 [2]; Log [Compound] (M) -7.14267): 72.1769 and 53.833 | GoB hCB1 (hCB1 [2]; Log [Compound] (M) -7.14267): 73.7932 and 56.1409 | Gi1 hCB1 (hCB1 [2]; Log [Compound] (M) -7.55284): 51.6729 and 43.6499 | GoB hCB1 (hCB1 [2]; Log [Compound] (M) -7.55284): 61.8702 and 41.6614 | Gi1 hCB1 (hCB1 [2]; Log [Compound] (M) -8): 32.3713 and 22.1909 | GoB hCB1 (hCB1 [2]; Log [Compound] (M) -8): 32.3776 and 21.4874 | Gi1 hCB1 (hCB1 [2]; Log [Compound] (M) -8.22186): 19.0514 and 17.5665 | GoB hCB1 (hCB1 [2]; Log [Compound] (M) -8.22186): 16.1566 and 14.2824 | Gi1 hCB1 (hCB1 [2]; Log [Compound] (M) -8.39794): 17.4789 and 12.7996 | GoB hCB1 (hCB1 [2]; Log [Compound] (M) -8.39794): 19.8252 and 10.1677 | Gi1 hCB1 (hCB1 [2]; Log [Compound] (M) -8.68787): 7.998 and 0.7635 | GoB hCB1 (hCB1 [2]; Log [Compound] (M) -8.68787): 1.86 and 2.6849 | Gi1 hCB1 (hCB1 [2]; Log [Compound] (M) -9.15521): 2.91 and 0.2884 | GoB hCB1 (hCB1 [2]; Log [Compound] (M) -9.15521): 1.788 and -5.44 | Gi1 hCB1 (hCB1 [2]; Log [Compound] (M) -9.61989): 1.7386 and -5.445 | GoB hCB1 (hCB1 [2]; Log [Compound] (M) -9.61989): -0.8737 and -6.308 | Gi1 hCB1 (hCB1 [2]; Log [Compound] (M) -10.0969): 1.245 and -4.415 | GoB hCB1 (hCB1 [2]; Log [Compound] (M) -10.0969): -2.852 and -5.544 | Gi1 hCB1 (hCB1 [2]; Log [Compound] (M) -10.5529): 0.9678 and -3.3699 | GoB hCB1 (hCB1 [2]; Log [Compound] (M) -10.5529): -2.528 and -5.649 | Gi1 hCB1 (hCB1 [2]; Log [Compound] (M) -11.0177): 2.371 and -4.415 | GoB hCB1 (hCB1 [2]; Log [Compound] (M) -11.0177): -2.294 and -7.871 | Gi1 hCB1 (hCB1 [2]; Log [Compound] (M) -11.4949): -0.1731 and -5.27 | GoB hCB1 (hCB1 [2]; Log [Compound] (M) -11.4949): 0.583 and -6.36 | Gi1 hCB1 (hCB1 [2]; Log [Compound] (M) -11.9208): 0.6903 and -3.196 | GoB hCB1 (hCB1 [2]; Log [Compound] (M) -11.9208): 1.158 and -6.864 | Gi1 hCB1 (hCB1 [2]; Log [Compound] (M) -12.3979): 1.692 and -4.146 | GoB hCB1 (hCB1 [2]; Log [Compound] (M) -12.3979): 3.838 and -6.76 | Gi1 hCB1 (hCB1 [2]; Log [Compound] (M) -12.8861): 2.602 and -5.207 | GoB hCB1 (hCB1 [2]; Log [Compound] (M) -12.8861): -0.1004 and -5.944 | Gi1 hCB1 (hCB1 [2]; Log [Compound] (M) -13): 1.677 and 3.693 | GoB hCB1 (hCB1 [2]; Log [Compound] (M) -13): -0.7478 and -0.8395 | Gi1 hCB1 (hCB1 [2]; Log [Compound] (M) cell empty): -2.293 | GoB hCB1 (hCB1 [2]; Log [Compound] (M) cell empty): -5.1625 | pEC50 [95% CI] (hCB1 [2]; hCB1 Gi1): 7.72 [7.6 – 7.8] | pEC50 [95% CI] (hCB1 [2]; hCB1 GoB): 7.8 [7.7 – 7.9] | pEC50 [95% CI] (hCB1 [2]; hCB1 Gz): 7.5 [6.9 – 7.8] | EC50 (hCB1 [2]; hCB1 GoB): 0.018 µM | EC50 (hCB1 [2]; hCB1 Gz): 0.033 µM | Emax (hCB1 [2]; read-out: Emax [95% CI], hCB1 Gi1): 82% | Emax (hCB1 [2]; read-out: Emax [95% CI], hCB1 GoB): 83% | Emax (hCB1 [2]; read-out: Emax [95% CI], hCB1 Gz): 98% | pKi [95% CI] (CB1 (rCB1)): 7.1 [6.9 – 7.3] | Ki (CB1 (rCB1); [3]): 0.0902 µM
